# Reference: article PMC10044120, “Potent and selective covalent inhibition of the papain-like protease from SARS-CoV-2” (Nature Communications, 2023)
# “And” between values parts separate entries of the source, which are not always exact repeats. Identical values can stand only once. Like-named read-outs stand apart in the source and are kept apart here.
# Tests used:
# PLpro from SARS-CoV-2 [1] = target: T1, PLpro from SARS-CoV-2 (Severe acute respiratory syndrome coronavirus 2, UniProt P0DTD1); test: biochemical; format: biochemical; details: for remaining activity at 100 µM: inhibitor 100.00 uM; for remaining activity at […]: read-out: % Plpro activity; for IC50: after 30-min incubation; for remaining activity at 0.02 µM: inhibitor 0.02 uM; for remaining activity at 2.01 µM: inhibitor 2.01 uM; for remaining activity at 6.34 µM: inhibitor 6.34 uM
# [2] = tested on: SARS-CoV-2 isolate USA-WA1/2020; details: for inhibition: read-out: cytopathic effect, % cell viability, duplicate wells
# Vero E6 cells = details: African green monkey, 48 h
# in vitro = details: African green monkey, cytotoxicity, %cell viability
# [3] = tested on: SARS-CoV-2 isolate USA-WA1/2020; test: microbe, parasite or virus in culture; details: for inhibition at 2.08 µM: Severe acute respiratory syndrome coronavirus 2, Vero C1008, read-out: cytopathic effect, % cell viability, [inhibitor] 2.08 uM; for inhibition at […]: Severe acute respiratory syndrome coronavirus 2, Vero C1008, read-out: cytopathic effect, % cell viability
# PLpro from SARS-CoV-2 [4] = target: T1, PLpro from SARS-CoV-2; test: biochemical; format: biochemical; details: fluorogenic peptide assay, varied preincubation time
# PLpro = PLpro (Severe acute respiratory syndrome coronavirus 2, UniProt P0DTD1); test: Intact protein ESI-MS to assess covalent adduct formation; format: binding, SARS-CoV-2; set-up: unit not given here
# [5] = purified PLpro, Z-RLRGG-AMC substrate
Compound,remaining activity at 100 µM (PLpro from SARS-CoV-2 [1]; 0.5 h) [%],remaining activity at […] (PLpro from SARS-CoV-2 [1]; 0.5 h),"inhibition ([2]; [inhibitor] 2.08 uM, 2.08 µM) [%]","cytotoxicity, %cell viability (Vero E6 cells; 2.08 µM) [%]","cytotoxicity, %cell viability (Vero E6 cells; 8.33 µM) [%]","cytotoxicity, %cell viability (Vero E6 cells; 16.65 µM) [%]","viability at 48 h, 2.08 µM (in vitro) [%]","viability at 48 h, 8.33 µM (in vitro) [%]","viability at 48 h, 16.65 µM (in vitro) [%]",inhibition at 2.08 µM ([3]; duplicate wells) [%],IC50 (PLpro from SARS-CoV-2 [1]; [5]) [µM],Time dep. (time-dependent inhibition) (PLpro from SARS-CoV-2 [4]),inhibition at […] [3] [%],remaining activity at 0.02 µM (PLpro from SARS-CoV-2 [1]; 0.5 h) [%],remaining activity at 2.01 µM (PLpro from SARS-CoV-2 [1]; 0.5 h) [%],remaining activity at 6.34 µM (PLpro from SARS-CoV-2 [1]; 0.5 h) [%],"cytotoxicity, %cell viability (Vero E6 cells; 16.67 µM) [%]","cytotoxicity, %cell viability (Vero E6 cells; 33.33 µM) [%]","viability at 48 h, 16.67 µM (in vitro) [%]","viability at 48 h, 33.33 µM (in vitro) [%]",other results
"COC(=O)CCc1ccccc1C(=O)N[C@H](C)c1cccc2ccccc12 [Compound 3, methyl (R)−3-(2-((1-(naphthalen-1-yl)ethyl)carbamoyl)phenyl)propanoate]",78.6,119% and 108%,8.63,99.61,97.36,90.64,105,93.2,92,7.81,–,–,–,–,–,–,–,–,–,–,–
"C[C@@H](NC(=O)c1ccccc1CCC(=O)NN)c1cccc2ccccc12 [Compound 5, (R)-2-(3-hydrazineyl-3-oxopropyl)-N-(1-(naphthalen-1-yl)ethyl)benzamide]",13.9,103% and 109%,7.12,100.12,100.79,89.16,101,97,94.8,11.2,24,No,11.2,–,–,–,–,–,–,–,"remaining activity at 19.5 µM (PLpro from SARS-CoV-2 [1]; 0.5 h, inhibitor 19.50 uM): 46.4%; inhibition ([2]; [inhibitor] 8.33 uM, 8.33 µM): 8.31%; inhibition ([2]; [inhibitor] 16.65 uM, 16.65 µM): 2.6%; inhibition at 8.33 µM ([3]; Severe acute respiratory syndrome coronavirus 2, Vero C1008, read-out: cytopathic effect, % cell viability, [inhibitor] 8.33 uM, duplicate wells): 8.24%; inhibition at 16.65 µM ([3]; Severe acute respiratory syndrome coronavirus 2, Vero C1008, read-out: cytopathic effect, % cell viability, [inhibitor] 16.65 uM, duplicate wells): 2.95%"
"CC(=O)Nc1ccc(CCC(=O)NNC(=O)CCl)c(C(=O)N[C@H](C)c2cccc3ccccc23)c1 [Compound 10, (R)-5-acetamido-2-(3-(2-(2-chloroacetyl)hydrazineyl)-3-oxopropyl)-N-(1-(naphthalen-1-yl)ethyl)benzamide]",–,–,1.32,80.200,79.780,–,92.2,84.4,–,2.2,–,–,–,90.3,80.3,37.2,73.170,66.030,81.5,73.4,"remaining activity at 0.06 µM (PLpro from SARS-CoV-2 [1]; 0.5 h, inhibitor 0.06 uM): 102%; IC50 (PLpro from SARS-CoV-2 [1]; […]): 4.4 µM; Measured adduct mass (PLpro): 460"
"C[C@@H](NC(=O)c1ccccc1CCC(=O)NNC(=O)CC#N)c1cccc2ccccc12 [Compound 11, (R)-2-(3-(2-(2-cyanoacetyl)hydrazineyl)-3-oxopropyl)-N-(1-(naphthalen-1-yl)ethyl)benzamide]",–,–,4.7,98.90,91.20,–,101,94,–,8,8,not and No,9.7,84.4,71.3,46.4,87.90,80.50,88.6,80.8,"remaining activity at 0.2 µM (PLpro from SARS-CoV-2 [1]; 0.5 h, inhibitor 0.20 uM): 89.9%; remaining activity at 20 µM (PLpro from SARS-CoV-2 [1]; 0.5 h, inhibitor 20.00 uM): 41.4%; remaining activity at 200 µM (PLpro from SARS-CoV-2 [1]; 0.5 h, inhibitor 200.00 uM): 5.83%; EC50 (cytopathic effect) ([2]; SARS-CoV-2-infected Vero E6 cells, 48 h): No CPE"
